Data published in US20230064189A1, “1H-PYRAZOLO[3,4-D]PYRIMIDINE COMPOUNDS USEFUL FOR THE TREATMENT OF PLATINUM-RESISTANT CANCER” (IMPERIAL COLLEGE INNOVATIONS LIMITED, priority 2019, published 2023).
Where “and” joins values, the source holds several entries; their conditions need not be identical. Identical values can stand only once.

Legend:
AKT2 = AKT2 (Homo sapiens, UniProt P31751); experiment: AKT2 enzymatic inhibition assay (HTRF KinEASE); type: biochemical; conditions: read-out: AKT2 pIC50 (converted)
Sequence of AKT2 (P31751 152-409 limits assumed): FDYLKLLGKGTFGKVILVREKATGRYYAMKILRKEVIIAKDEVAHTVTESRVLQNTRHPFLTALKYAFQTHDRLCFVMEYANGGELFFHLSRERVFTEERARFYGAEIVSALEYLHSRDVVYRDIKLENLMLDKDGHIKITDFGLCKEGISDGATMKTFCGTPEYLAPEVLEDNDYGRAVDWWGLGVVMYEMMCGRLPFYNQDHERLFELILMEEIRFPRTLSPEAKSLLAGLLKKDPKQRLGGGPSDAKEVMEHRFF
Procedure: (§1) The IC50 values of Example compounds of the invention for AKT1, AKT2 and AKT3 were measured using HTRF (Homogeneous Time Resolved Fluorescence) KinEASE assays (62ST3PEB—1000 tests or 62ST3PEC—20,000 tests) from cisbio.com, according to manufacturer's instructions.

PEO4 cells = experiment: Relative re-sensitisation ratio of apoptosis induction (caspase 3/7 normalised to MTT) with cisplatin; type: cell-based; conditions: compound at 20 μM, triciribine at 25 μM, cisplatin 25 μM, 24 h
Procedure: Cell viability was determined for different assays (as described in FIGS. 1 and 2, Table 5) in optically clear 96 well plates using the standard 3-(4, 5-dimethylthiazol-2-yl)-2, 5-diphenyl tetrazolium bromide (MTT) assay, which is a colorimetric method for determining the number of metabolically active cells in cytotoxicity assays. MTT is bioreduced by mitochondrial dehydrogenase enzymes into a coloured solid formazan product. MTT reagent (Sigma, UK) was initially prepared by dissolving in PBS at a concentration of 3 mg/ml. Following relevant drug treatments at different time points and cell lines (described in results section and FIGS. 1 and 2), MTT reagent was added to each experimental well at a final concentration of 0.5 mg/ml. After incubation for 3 h at 37° C. 5% CO2, an equal volume of stop solution (10% SDS in 0.01% HCl) was added and formed formazan crystals were allowed to dissolve shaking overnight. The following day, the optical density was read at 570 nm and analysis performed as per each assay type.
The caspase 3/7 activity of cells following treatment with inhibitor compounds or vehicle (DMSO) was determined using the Caspase-Glo® 3/7 Assay (Catalogue number G8093, Promega, US) according to manufacturer's instructions. Briefly, 10,000 cells per well for PEO1 and PEO4 cell lines or 5000 cells per well for SKOV3 cell line were grown in 96 well plates in a final volume of 50 μl and following relevant drug treatment of cells (example compound±cisplatin, comparative example compound±cisplatin, or vehicle±cisplatin) for 24 hours, an equal volume of Caspase-Glo® Reagent containing a luminogenic substrate for Caspase 3 and Caspase 7 was added i.e. if cells cultured in 50 μl of media, 50 μl of caspase reagent was added. After 1 h incubation at room temperature in the dark, the luminescence of each sample was measured in a plate-reading luminometer (LUMIstar OPTIMA, BMG Labtech, Germany). Caspase 3/7 activity data was normalised to corresponding viability data from MTT and analysis was performed according to each experimental set-up.
. Apoptosis (caspase 3/7) and viability (MTT) assays were carried out as described for each assay protocols and the phenotypic apoptosis assays above. Relative apoptosis induction was inferred from caspase 3/7 assay values normalised to the standard MTT viability assay values of each corresponding well. […]

DNA-PK = DNA-PK (Homo sapiens, UniProt P78527); experiment: DNA-PK enzymatic inhibition assay (HTRF KinEASE); type: biochemical; conditions: read-out: DNA-PK pIC50 (converted)
Procedure: The IC50 values of Example compounds of the invention for DNA-PK were measured using the HTRF KinEASE assay as described above.

AKT1 = AKT1 (Homo sapiens, UniProt P31749); experiment: AKT1 enzymatic inhibition assay (HTRF KinEASE); type: biochemical; conditions: read-out: AKT1 pIC50 (converted)
Sequence of AKT1 (P31749 150-408 limits assumed): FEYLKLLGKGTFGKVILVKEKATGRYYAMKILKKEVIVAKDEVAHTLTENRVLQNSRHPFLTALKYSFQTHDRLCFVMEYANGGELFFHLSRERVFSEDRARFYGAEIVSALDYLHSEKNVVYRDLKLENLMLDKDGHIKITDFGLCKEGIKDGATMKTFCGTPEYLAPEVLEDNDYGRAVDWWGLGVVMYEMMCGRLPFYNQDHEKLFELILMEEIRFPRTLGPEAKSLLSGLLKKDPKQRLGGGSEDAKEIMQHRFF
Procedure: as §1

AKT3 = AKT3 (Homo sapiens, UniProt Q9Y243); experiment: AKT3 enzymatic inhibition assay (HTRF KinEASE); type: biochemical; conditions: read-out: AKT3 pIC50 (converted)
Sequence of AKT3 (Q9Y243 148-405 limits assumed): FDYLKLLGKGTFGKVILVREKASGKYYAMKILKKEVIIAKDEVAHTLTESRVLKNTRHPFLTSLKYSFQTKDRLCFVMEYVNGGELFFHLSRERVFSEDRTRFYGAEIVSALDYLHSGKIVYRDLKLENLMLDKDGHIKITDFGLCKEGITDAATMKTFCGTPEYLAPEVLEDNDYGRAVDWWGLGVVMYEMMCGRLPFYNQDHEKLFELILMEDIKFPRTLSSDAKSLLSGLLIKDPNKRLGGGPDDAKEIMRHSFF
Procedure: as §1

| IC50 (AKT2) [nM] | IC50 (DNA-PK) | IC50 (AKT1) | IC50 (AKT3) [nM] | Structure (SMILES) | Relative re-sensitisation ratio of apoptosis induction (caspase 3/7) relative to triciribine phosphate (PEO4 cells) |
| --- | --- | --- | --- | --- | --- |
| 490 | 12 nM | 933 nM | 158 | CN(C)CCCC(=C1CCN(c2ncnc3[nH]nc(C(F)(F)F)c23)CC1)c1ccc(Cl)cc1 [Example 15, 4-(4-chlorophenyl)-N,N-dimethyl-4-(1-(3-(trifluoromethyl)-1H-pyrazolo[3,4-d]pyrimidin-4-yl)piperidin-4-ylidene)butan-1-amine] | 1.1 |
| 6.46 | 4.68 nM | 2.51 nM | 1.29 | CN(C)CCCCC(O)(c1ccc(Cl)cc1)C1CCN(c2ncnc3[nH]nc(Br)c23)CC1 (stereo not shown) [Example 14, 1-(1-(3-bromo-1H-pyrazolo[3,4-d]pyrimidin-4-yl)piperidin-4-yl)-1-(4-chlorophenyl)-5-(dimethylamino)pentan-1-ol] | 1.2 |
| 2.75 | 1.95 nM | 1.2 nM | 0.676 | CN(C)CCNC(c1ccc(Cl)cc1)C1CCN(c2ncnc3[nH]nc(Br)c23)CC1 (stereo not shown) [Example 9, N^1-((1-(3-bromo-1H-pyrazolo[3,4-d]pyrimidin-4-yl)piperidin-4-yl)(4-chlorophenyl)methyl)-N^2,N^2-dimethylethane-1,2-diamine] | 1.5 |
| 1.66 | 1.7 nM | 0.912 nM | 0.316 | CN(C)CC(c1ccc(Cl)cc1)C1CCN(c2ncnc3[nH]nc(C(F)(F)F)c23)CC1 (stereo not shown) [Example 11, 2-(4-chlorophenyl)-N,N-dimethyl-2-(1-(3-(trifluoromethyl)-1H-pyrazolo[3,4-d]pyrimidin-4-yl)piperidin-4-yl)ethan-1-amine] | 1.3 |
| 7.24 | 1.86 nM | 7.08 nM | 2.95 | CN(C)CC(c1ccc(Cl)cc1)N1CCN(c2ncnc3[nH]nc(C(F)(F)F)c23)CC1 (stereo not shown) [Example 13, 2-(4-chlorophenyl)-N,N-dimethyl-2-(4-(3-(trifluoromethyl)-1H-pyrazolo[3,4-d]pyrimidin-4-yl)piperazin-1-yl)ethanamine] | 1.2 |
| 170 | 8.51 nM |  | 209 | COc1ccc(O)c(C(=O)c2ccc(C(=O)N[C@@H]3CCCNC[C@H]3NC(=O)c3ccncc3)cc2)c1F [Roche comp-4, N-{(3R,4R)-4-[4-(2-fluoro-6-hydroxy-3-methoxy-benzoyl)-benzoylamino]-azepan-3-yl}-isonicotinamide, reference compound] |  |

Second part, the molecule before the results:

| Structure (SMILES) | IC50 (AKT2) [nM] | IC50 (DNA-PK) | IC50 (AKT1) | IC50 (AKT3) [nM] | Relative re-sensitisation ratio of apoptosis induction (caspase 3/7) relative to triciribine phosphate (PEO4 cells) |
| --- | --- | --- | --- | --- | --- |
| Cc1n[nH]c2ncnc(N3CCC(C(OCCN(C)C)c4ccc(Cl)cc4)CC3)c12 (stereo not shown) [Example 5, 2-((4-chlorophenyl)(1-(3-methyl-1H-pyrazolo[3,4-d]pyrimidin-4-yl)piperidin-4-yl)methoxy)-N,N-dimethylethan-1-amine] | 27.5 | 7.08 nM | 12.6 nM | 7.24 | 2.5 |
| CN(C)C(=O)C(c1ccc(Cl)cc1)N1CCN(c2ncnc3[nH]nc(Br)c23)CC1 (stereo not shown) [Example 4, 2-(4-(3-bromo-1H-pyrazolo[3,4-d]pyrimidin-4-yl)piperazin-1-yl)-2-(4-chlorophenyl)-N,N-dimethylacetamide] | 2240 | 141 nM | 1350 nM | 603 | 2.6 |
| CN(C)CCNC(=O)C(c1ccc(Cl)cc1)N1CCN(c2ncnc3[nH]nc(Br)c23)CC1 (single isomer, unassigned; (-)) [Example 3a, (−)-2-(4-(3-bromo-1H-pyrazolo[3,4-d]pyrimidin-4-yl)piperazin-1-yl)-2-(4-chlorophenyl)-N-(2-(dimethylamino)ethyl)acetamide] |  | 4.9 nM and 10.7 nM | 4.47 nM and 1.58 nM |  | 2.7 |
| CCN(CC)CCS(=O)(=O)N(c1ccc(Cl)cc1)C1CCN(c2ncnc3[nH]nc(Br)c23)CC1 [Example 6, N-(1-(3-bromo-1H-pyrazolo[3,4-d]pyrimidin-4-yl)piperidin-4-yl)-N-(4-chlorophenyl)-2-(diethylamino)ethane-1-sulfonamide] | 7.41 | 6.17 nM | 1.32 nM | 0.851 | 2.3 |
| CN(C)CCCC(O)(c1ccc(Cl)cc1)C1CCN(c2ncnc3[nH]nc(Br)c23)CC1 (stereo not shown) [Example 8, 1-(1-(3-bromo-1H-pyrazolo[3,4-d]pyrimidin-4-yl)piperidin-4-yl)-1-(4-chlorophenyl)-4-(dimethylamino)butan-1-ol] | 6.03 | 3.47 nM | 2.57 nM | 0.955 | 1.73 |
| CN1N=C(N)c2cn([C@@H]3O[C@H](COP(=O)(O)O)[C@@H](O)[C@H]3O)c3ncnc1c23 [Triciribine phosphate, ((2R,3S,4R,5R)-5-(3-amino-5-methyl-1,4,5,6,8-pentaazaacenaphthylen-1(5H)-yl)-3,4-dihydroxytetrahydrofuran-2-yl)methyl dihydrogen phosphate, reference compound] |  |  |  |  | 1.0 |
| CN(C)CC(c1ccc(Cl)cc1)C1CCN(c2ncnc3[nH]nc(Br)c23)CC1 (stereo not shown) [Example 7, 2-(1-(3-bromo-1H-pyrazolo[3,4-d]pyrimidin-4-yl)piperidin-4-yl)-2-(4-chlorophenyl)-N,N-dimethylethan-1-amine] | 3.63 | 2.75 nM | 0.912 nM | 1.38 | 2.3 |
| CN(C)CCNC(=O)C(c1ccc(Cl)cc1)N1CCN(c2ncnc3[nH]nc(Br)c23)CC1 (stereo not shown) [Example 3, 2-(4-(3-bromo-1H-pyrazolo[3,4-d]pyrimidin-4-yl)piperazin-1-yl)-2-(4-chlorophenyl)-N-(2-(dimethylamino)ethyl)acetamide] |  |  |  |  | 1.7 |
| CN(C)CCNC(=O)C(c1ccc(Cl)cc1)N1CCN(c2ncnc3[nH]nc(Br)c23)CC1 (single isomer, unassigned; (+)) [Example 3b, (+)-2-(4-(3-bromo-1H-pyrazolo[3,4-d]pyrimidin-4-yl)piperazin-1-yl)-2-(4-chlorophenyl)-N-(2-(dimethylamino)ethyl)acetamide] | 34.7 | 10.5 nM | 15.1 nM | 5.25 | 1.4 |
| CN(C)CCCOC(c1ccc(Cl)cc1)C1CCN(c2ncnc3[nH]nc(Br)c23)CC1 (stereo not shown) [Example 10, 3-((1-(3-bromo-1H-pyrazolo[3,4-d]pyrimidin-4-yl)piperidin-4-yl)(4-chlorophenyl)methoxy)-N,N-dimethylpropan-1-amine] |  |  |  |  | 1.5 |
